Drawing on ChEMBL document CHEMBL2177024 (J Med Chem, 2012), this text covers Ki and IC50 for two compounds.

Test [1] addresses T1, Beta-secretase 1 (Homo sapiens, UniProt P56817).
Test [2] concerns the target T1, Beta-secretase 1. This is another data set of the same source.
Description: Inhibition of BACE1 in human neuroblastoma cells
A further test concerns the target Cathepsin D (Homo sapiens, UniProt P07339).

T1 sequence (P56817 whole entry): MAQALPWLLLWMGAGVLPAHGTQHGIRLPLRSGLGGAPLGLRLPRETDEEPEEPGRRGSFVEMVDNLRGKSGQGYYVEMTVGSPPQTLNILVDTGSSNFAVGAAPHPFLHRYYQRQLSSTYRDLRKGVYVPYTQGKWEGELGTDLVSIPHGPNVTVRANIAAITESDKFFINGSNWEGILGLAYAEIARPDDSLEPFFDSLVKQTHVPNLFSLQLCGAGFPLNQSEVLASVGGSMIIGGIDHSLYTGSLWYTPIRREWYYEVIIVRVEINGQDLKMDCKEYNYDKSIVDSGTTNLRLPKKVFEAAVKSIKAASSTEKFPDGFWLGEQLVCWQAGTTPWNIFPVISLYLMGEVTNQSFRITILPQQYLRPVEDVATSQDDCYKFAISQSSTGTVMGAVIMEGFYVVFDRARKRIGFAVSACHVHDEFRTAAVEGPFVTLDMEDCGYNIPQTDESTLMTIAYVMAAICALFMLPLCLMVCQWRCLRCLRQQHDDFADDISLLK
Cathepsin D, sequence (P07339 65-162 limits assumed): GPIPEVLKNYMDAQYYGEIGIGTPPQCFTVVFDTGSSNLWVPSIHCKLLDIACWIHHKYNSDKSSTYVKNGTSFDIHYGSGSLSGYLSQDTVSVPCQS
Cathepsin D, sequence (P07339 169-412 limits assumed): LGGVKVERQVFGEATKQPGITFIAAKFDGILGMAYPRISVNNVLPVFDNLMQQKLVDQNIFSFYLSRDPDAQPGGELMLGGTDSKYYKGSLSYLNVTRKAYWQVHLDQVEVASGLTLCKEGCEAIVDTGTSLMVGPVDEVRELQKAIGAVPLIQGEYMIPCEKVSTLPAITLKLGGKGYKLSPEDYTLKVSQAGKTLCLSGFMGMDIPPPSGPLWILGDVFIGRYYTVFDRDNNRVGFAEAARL
Description for Cathepsin D: Inhibition of human cathepsin D

`CC(C)CNC[C@@H](NC[C@H](Cc1ccccc1)NC(=O)c1cc(C(=O)N[C@H](C)c2ccccc2)cc(N(C)S(C)(=O)=O)c1)[C@H](C)O`: the Ki on Beta-secretase 1 [1] was more than 1000 nM.

For `CCC[C@H](O)[C@H](NC[C@H](Cc1ccccc1)NC(=O)c1cc2c3c(c1)c(CC)cn3CC1(CC1)S(=O)(=O)N2C)C(=O)NC(C)C`, the values for the Ki on Beta-secretase 1 [1] and on Cathepsin D were 0.47 nM and 2000 nM, respectively. Also, the IC50 on Beta-secretase 1 [2] came out at 14 nM.

A word on the Ki: it is the dissociation constant of the complex between target and ligand, obtained from inhibition or displacement. A word on the IC50: it is the midpoint of a concentration-inhibition curve. A low value points to higher potency.
